Test results from patent US8017326B2, “Methods of modulating cell death based on the Bit-1/AES regulatory pathway” (Sanford-Burnham Medical Research Institute, priority 2002, dated 2011).
Where a SMILES comes first, the peptide text is derived from it. Where no end group is shown, it is not given here. The star is where a group is joined. Cbz = O=C(OCc1ccccc1)*; CH2F = FC*

What was measured:
Bit1 in HeLa cells = assay: Localization of C-terminally tagged Bit1 in cells induced to undergo apoptosis; assay type: cell-based; conditions: 0.5 μM staurosporin
Text: Colocalization of Bit1 with an endoplasmic reticulum or golgi marker was not observed.

[1] = test system: Bit1-induced apoptosis in 293T cells; assay: Caspase inhibitors and anti-apoptotic proteins against Bit1; assay type: cell-based, human; conditions: cytosolic Bit1
Description: (§1) 293T cells were also co-transfected with Bit1 or AES and the caspase inhibitor proteins crmA and XIAP.

[2] = test system: AES-induced apoptosis in 293T cells; assay: Caspase inhibitors and anti-apoptotic proteins against AES; assay type: cell-based, human
Description: as §1

CHO cells = assay: Deletion analysis, cell death by trypan blue exclusion; assay type: cell-based, Chinese hamster; conditions: 10 μg construct, trypan blue exclusion 48 hours after transfection
Description: The amino-terminal portion of Bit1 (residues 16-40) is hydrophobic and can serve as a transmembrane domain or signal peptide sequence. When the hydrophobicity of this portion was reduced by substitution of glycine 22 and glycine 38 by serine, Bit1 apoptotic activity was reduced.
Deletion analysis was performed as follows. The indicated deletion mutants were cloned into vector pEGFP-C1, and 10 μg of each plasmid construct transfected into CHO cells. Cell death was measured by trypan blue exclusion 48 hours after transfection.
To delineate the pro-apoptotic domain of AES, a series of AES deletion mutants was prepared as amino-terminal fusions with GFP in vector pEGFP-C1. Various AES deletion constructs (10 μg) were transfected into CHO cells, and cell death measured by trypan blue exclusion 48 hours after transfection.

[3] = test system: Bit1-induced apoptosis in HEK 293 cells; assay: Co-transfection of Bit1 with anti-apoptotic proteins; assay type: cell-based, human; conditions: HEK 293 cells co-transfected with Bit1
Description: Co-transfections were performed with cells plated on non-coated dishes transfected with 5 μg Bit1 plasmid alone or together with 10 μg dominant negative (DN) R-Ras, or activated H-Ras plasmid (Zou et al., Proc. Natl. Acad. Sci. USA 96: 13813-13818 (1999)). […] Expression of the transfected proteins was confirmed by immunoblotting. Apoptosis was assayed as described above.

[4] = test system: Bit1-induced apoptosis in HEK 293 cells; assay: Extracellular matrix proteins and Bit1-induced apoptosis, trypan blue staining; assay type: cell-based, human; conditions: HEK 293 cells plated onto coated dishes, 10 μg Bit1 plasmid, 48 hours
Description: Several extracellular matrix proteins were assayed for the ability to modulate Bit1-mediated apoptosis. Cells were plated onto bacterial culture dishes pre-coated overnight with fibronectin (Chemicon; Temecula; CA), vitronectin (SIGMA; St. Louis, Mo.) or type I collagen (SIGMA), and transfected and assayed for apoptosis as described above.
To analyze integrin involvement in protecting attached cells against the pro-apoptotic effect of Bit1, Bit1 cell lines expressing either α5β1 or αvβ1 as the main fibronectin receptor were compared. The two cell lines attach equally well to fibronectin but, like cytoplasmically truncated α5β1, αvβ1 fails to protect cells against apoptosis induced by serum deprivation (Zhang et al., supra, 1995; and Matter and Ruoslahti, supra, 2001).
Experiments with extracellular matrix proteins were performed as follows. Cells were plated onto uncoated tissue culture plates or onto bacterial culture plates coated with fibronectin, vitronectin or collagen, and allowed to attach in the presence of serum. The attachment was equal on all of these surfaces. The cells were then transfected with 10 μg of Bit1 expression plasmid; where indicated, cells were treated with a control IgG of unrelated specificity or monoclonal anti-human α5 antibody (Chemicon), both at 10 μg/ml. Cell death was measured by trypan blue staining 48 hours after the transfection.

[5] = test system: Bit1-AES complex in HeLa cells; assay: Co-immunoprecipitation of Bit1-AES complex, cells plated on fibronectin or collagen; assay type: cell-based; conditions: HeLa cells plated on fibronectin versus collagen, quantification of gel bands, 24 h after transfection
Description: In these experiments, HeLa cells were plated on fibronectin or collagen before transfection with pCMV-Myc-Bit1 (3 μg) and pCMV-flag-AES (3 μg) plasmids. Cell lysates were harvested 24 h after transfection and immunoprecipitated with anti-flag and immunoblotted with anti-myc. The total amount of DNA used was adjusted to 10 μg with empty vector in each transfection. The expression of the transfected AES in each sample was confirmed by immunoblotting 20 μl of the whole extract with anti-flag as is shown in FIG. 6C, lower boxes in B and C.
Thus, a low level of Bit1/AES complex correlated with cell survival and a high level is associated with apoptosis.

Molecule: CN[C@@H]1C[C@H]2O[C@@](C)([C@@H]1OC)n1c3ccccc3c3c4c(c5c6ccccc6n2c5c31)C(=O)NC4 [staurosporin]
- localization of C-terminally tagged Bit1 (Bit1 in HeLa cells): released into the cytoplasm

Molecule: COC(=O)C[C@H](NC(=O)[C@H](C)NC(=O)[C@@H](NC(=O)OCc1ccccc1)C(C)C)C(=O)CF [z-VAD-fmk] (Cbz-Val-Ala-Asp(OMe)-CH2F)
- effect on apoptosis induced by Bit1 [1]: ineffective
- effect on apoptosis induced by AES [2]: ineffective

Molecule: AES residues 1-56: AES deletion mutant, amino-terminal fusion with GFP (MMFPQSRHSGSSHLPQQLKFTTSDSCDRIKDEFQLLQAQYHSLKLECDKLASEKSE; cysteine pairing not given here; also: amino-terminal fusion with GFP; UniProt Q08117 1-56, looked up, fragment)
- pro-apoptotic activity of deletion constructs (CHO cells): no apoptotic activity

Molecule: AES residues 57-88: AES deletion mutant, amino-terminal fusion with GFP (SEQ ID NO:9) (MQRHYVMYYEMSYGLNIEMHKQAEIVKRLNGI; also: amino-terminal fusion with GFP; UniProt Q08117 57-88, looked up, fragment)
- pro-apoptotic activity of deletion constructs (CHO cells): efficiently induced apoptosis

Molecule: AES residues 57-105: AES deletion mutant, amino-terminal fusion with GFP (SEQ ID NO:8) (MQRHYVMYYEMSYGLNIEMHKQAEIVKRLNGICAQVLPYLSQEHQQQVL; also: amino-terminal fusion with GFP; UniProt Q08117 57-105, looked up, fragment)
- pro-apoptotic activity of deletion constructs (CHO cells): efficiently induced apoptosis

Molecule: Bcl-2: anti-apoptotic protein, expression construct pcDNA3-Bcl-2
- effect on apoptosis induced by Bit1 [1]: no effect
- effect on apoptosis induced by Bit1 [3]: little or no effect
- effect on apoptosis induced by AES [2]: partially effective

Molecule: collagen: type I collagen coated on culture dishes (SIGMA)
- protection from Bit1-induced apoptosis [4]: could not confer the same protective effect

Molecule: fibronectin
- protection from Bit1-induced apoptosis [4]: largely protected
- reduction in Bit1/AES complex on fibronectin [5]: approximately 75%
